According to the supplement of paper PMC13380429:
± gives the standard deviation of the averaged measurements.

Tests used:
Details in all cases: 72 h
Vero E6 [1] = assay: cell viability relative to DMSO; higher = less toxic
U2OS [2] = assay: as above
Calu-3 [3] = assay: as above
Caco-2 [4] = assay: as above
HepG2 [5] = assay: as above
Vero E6 [6] = assay: relative viability EC50 (midpoint between 100% and the lowest measured viability); higher = less toxic
U2OS [7] = assay: as above
Calu-3 [8] = assay: as above
Caco-2 [9] = assay: as above
HepG2 [10] = assay: as above
Vero E6 [11] = assay: drug sensitivity score (DSS) for viability; higher = more toxic; extreme values may be limits of the assay
U2OS [12] = assay: as above
Calu-3 [13] = assay: as above
Caco-2 [14] = assay: as above
HepG2 [15] = assay: as above

SMILES	cell viability (Vero E6 [1]; 1 nM) [%]	cell viability (Vero E6 [1]; 10 nM) [%]	cell viability (Vero E6 [1]; 100 nM) [%]	cell viability (Vero E6 [1]; 1000 nM) [%]	cell viability (Vero E6 [1]; 10000 nM) [%]	cell viability (U2OS [2]; 1 nM) [%]	cell viability (U2OS [2]; 10 nM) [%]	cell viability (U2OS [2]; 100 nM) [%]	cell viability (U2OS [2]; 1000 nM) [%]	cell viability (U2OS [2]; 10000 nM) [%]	cell viability (Calu-3 [3]; 1 nM) [%]	cell viability (Calu-3 [3]; 10 nM) [%]	cell viability (Calu-3 [3]; 100 nM) [%]	cell viability (Calu-3 [3]; 1000 nM) [%]	cell viability (Calu-3 [3]; 10000 nM) [%]	cell viability (Caco-2 [4]; 1 nM) [%]	cell viability (Caco-2 [4]; 10 nM) [%]	cell viability (Caco-2 [4]; 100 nM) [%]	cell viability (Caco-2 [4]; 1000 nM) [%]	cell viability (Caco-2 [4]; 10000 nM) [%]	cell viability (HepG2 [5]; 1 nM) [%]	cell viability (HepG2 [5]; 10 nM) [%]	cell viability (HepG2 [5]; 100 nM) [%]	cell viability (HepG2 [5]; 1000 nM) [%]	cell viability (HepG2 [5]; 10000 nM) [%]	relative viability EC50 (Vero E6 [6]) [µM]	relative viability EC50 (U2OS [7]) [µM]	relative viability EC50 (Calu-3 [8]) [µM]	relative viability EC50 (Caco-2 [9]) [µM]	relative viability EC50 (HepG2 [10]) [µM]	drug sensitivity score (Vero E6 [11])	drug sensitivity score (U2OS [12])	drug sensitivity score (Calu-3 [13])	drug sensitivity score (Caco-2 [14])	drug sensitivity score (HepG2 [15])
CC(=O)[C@H]1CC[C@H]2[C@@H]3CC[C@H]4C[C@H](O)CC[C@]4(C)[C@H]3CC[C@]12C [allopregnanolone]	95.5 ± 3.5	101 ± 4.5	95 ± 3.5	97.9 ± 4.7	98.8 ± 4.5	98.8 ± 4.2	99.65 ± 0.92	98.55 ± 0.35	100 ± 5	97.7 ± 0.28	104 ± 5.9	102 ± 5.4	95.05 ± 0.64	104 ± 5.8	103 ± 3.8	98 ± 0.85	96.6 ± 1.1	96.2 ± 8.3	100 ± 3	103 ± 7.4	98.9 ± 6.8	92.4 ± 6.1	97.6 ± 7.2	99 ± 2.6	92 ± 3.5	> 10	> 10	> 10	> 10	> 10	0	0	0	0	0
COC(c1ccccc1)(c1ccccc1)[C@H](Oc1nc(C)cc(C)n1)C(=O)O [ambrisentan]	99.9	99.1	94.4	97.4	102	101	101	94.2	99.5	95.7	105	101	84.6	88.9	97	104	98.2	95.1	97.1	90.5	102	98.4	95.3	107	98.3	> 10	> 10	> 10	> 10	> 10	0	0	2.7	0	0
Cc1c(N(C)C)c(=O)n(-c2ccccc2)n1C [amidopyrine]	97.8	96.4	104	97.7	89.2	95.1	101	93.2	99.2	96.4	105	109	99.5	112	103	102	106	97.9	110	84	94.7	92.2	112	106	99.7	> 10	> 10	> 10	> 10	> 10	0	0	0	0.1	0
